Measurements: patent publication US6355799B1, “Substituted benzene compounds, process for their preparation, and herbicidal and defoliant compositions containing them” (ISK Americas Incorporated, priority 1997, dated 2002)

Key:
Assay type in all cases: in vivo
[1] = system: redroot pigweed (Amaranthus retroflexus, AMARE); assay: Pre-emerge test, greenhouse herbicide activity screening; conditions: pre-emerge; for Pre-emerge Herbicidal Activity AMARE (phytotoxicity rating, scale 0-100): rated 14 days after application, 0 = no damage, 100 = complete death; for phytotoxicity rating AMARE: 14 days after application, rating scale 0-100
Method in brief: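 Compounds in acetone were track-sprayed at 187 l/ha, 15–1000 g ai/ha, onto sandy loam pots. Pre-emerge seeds were sown one day before spraying, with surface watering afterwards. Post-emerge plants were at the 2–3 leaf stage and sprayed with 0.25% v/v non-ionic surfactant. Injury was rated 0–100 at 14 days.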

[2] = system: cocklebur (Xanthium strumarium, XANST); assay: as above; conditions: 14 days after application, rating scale 0-100
[3] = system: common ragweed (Ambrosia artemisizfolia L., AMBEL); assay: as above; conditions: pre-emerge, rated 14 days after application, 0 = no damage, 100 = complete death
Method in brief: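 Plants grown in 10 cm pots of sandy loam mix received acetone-dissolved compounds through a moving flat-fan nozzle. Doses ranged from 15 to 1000 g ai/ha. Pre-emerge pots were seeded one day earlier, post-emerge pots 8–21 days earlier. Fourteen days on, each pot was graded 0–100 for damage.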

[4] = system: common ragweed (Ambrosia artemisizfolia L., AMBEL); assay: Post-emerge test, greenhouse herbicide activity screening; conditions: phytotoxicity rating 0-100 (0 no damage, 100 complete death), 14 days after application
Method in brief: (§1)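 Visual ratings on a 0-100 scale (0 no damage, 100 all plants dead) were taken at 14 days after treatment. Rates of 15-1000 g ai/ha in acetone, 187 l/ha, were sprayed onto soil one day after planting (pre-emerge) or onto 2-3 leaf plants with 0.25% v/v surfactant (post-emerge).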

[5] = system: large crabgrass (Digitaria sanguinalis, DIGSA); assay: as above; conditions: Digitaria sanguinalis, post-emergence, 336 h, phytotoxicity rating 0-100 (0 no damage, 100 complete death), 14 days after application, read-out: Post-emerge Herbicidal Activity DIGSA
Method in brief: as §1

[6] = system: redroot pigweed (Amaranthus retroflexus, AMARE); assay: as above; conditions: Amaranthus retroflexus, post-emergence, 336 h, phytotoxicity rating 0-100 (0 no damage, 100 complete death), 14 days after application, read-out: Post-emerge Herbicidal Activity AMARE
Method in brief: as §1

[7] = system: weed species; assay: Standard greenhouse herbicide activity screening, overall statements on weeds; conditions: comparison with compound 2 of Japanese Pat. No. Toku Kai Hei 5-25144 (Table XIX)
From the text: A standard greenhouse herbicide activity screening system was used to evaluate the herbicidal efficacy and crop safety of these test compounds. Seven broadleaf weed species including redroot pigweed (Amaranthus retroflexus, AMARE, velvetleaf (Abutilon theophrasti, ABUTH), sicklepod (Cassia obtusifolia, CASOB), ivyleaf morningglory (Ipomoea hederacea, IPOHE), lambsquarters (Chenopodium album, CHEAL), common ragweed (Ambrosia artemisizfolia L., AMBEL), and cocklebur (Xanthium strumarium, XANST) were used as test species. Four grass weed species including green foxtail (Setaria viridis, SETVI), barnyardgrass (Echinochloa crus-galli, ECHCG), johnsongrass (Sorghum halepense, SORHA), and large crabgrass (Digitaria sanguinalis, DIGSA) were also used. In addition, three crop species, field corn (Zea mays L., var. Dekalb 535, CORN), soybean (Glycine max L., var. Pella 86, SOY), and is upland rice (Oryza sp., var. Tebonnet, RICE) were included.
All plants were grown in 10 cm square plastic pots which were filled with a sandy loam soil mix. For pre-emerge tests, seeds were planted one day prior to application of the test compounds. For post-emerge tests, seeds were planted 8-21 days prior to the test to allow emergence and good foliage development prior to application of the test substances. […]
At 14 days after application of the test materials, phytotoxicity ratings were recorded. […]

Structure (SMILES): COc1c(Cl)cc(F)c(-n2c(=O)cc(C(F)(F)F)n(C)c2=O)c1N [Compound 1-4, 3-(2-amino-4-chloro-6-fluoro-3-methoxyphenyl)-1-methyl-6-trifluoromethyl-2,4(1H, 3H)-pyrimidinedione]
- Pre-emerge Herbicidal Activity AMARE (phytotoxicity rating, scale 0-100) ([1]; 63 g ai/ha): 100
- Pre-emerge Herbicidal Activity AMARE (phytotoxicity rating, scale 0-100) ([1]; 250 g ai/ha): 100
- phytotoxicity rating AMARE ([1]; 3.9 g ai/ha): 30
- phytotoxicity rating AMARE ([1]; 7.8 g ai/ha): 100
- phytotoxicity rating AMARE ([1]; 15.6 g ai/ha): 90
- phytotoxicity rating AMARE ([1]; 31.3 g ai/ha): 100
- phytotoxicity rating AMARE ([1]; 62.5 g ai/ha): 100
- phytotoxicity rating AMARE ([1]; 125 g ai/ha): 100
- phytotoxicity rating AMARE ([1]; 250 g ai/ha): 100
- phytotoxicity rating XANST ([2]; 3.9 g ai/ha): 0
- phytotoxicity rating XANST ([2]; 7.8 g ai/ha): 0
- phytotoxicity rating XANST ([2]; 15.6 g ai/ha): 20
- phytotoxicity rating XANST ([2]; 31.3 g ai/ha): 10
- phytotoxicity rating XANST ([2]; 62.5 g ai/ha): 50
- phytotoxicity rating XANST ([2]; 125 g ai/ha): 50
- phytotoxicity rating XANST ([2]; 250 g ai/ha): 90
- Pre-emerge Herbicidal Activity AMBEL (phytotoxicity rating, scale 0-100) ([3]; 63 g ai/ha): 100
- Pre-emerge Herbicidal Activity AMBEL (phytotoxicity rating, scale 0-100) ([3]; 250 g ai/ha): 100
- Post-emerge Herbicidal Activity AMBEL ([4]; 63 g ai/ha): 50
- Post-emerge Herbicidal Activity AMBEL ([4]; 250 g ai/ha): 90
- pest or weed control at 63 g/ha ([5]; 63 g ai/ha): 0%
- pest or weed control at 250 g/ha ([5]; 250 g ai/ha): 50%
- pest or weed control at 63 g/ha ([6]; 63 g ai/ha): 30%
- pest or weed control at 250 g/ha ([6]; 250 g ai/ha): 95%
- pre-emerge herbicidal activity [7]: high level of activity
